Measurements published in patent US9409939B2, “Quantification method for remaining liver function and novel liver receptor imaging agent” (INSTITUTE OF NUCLEAR ENERGY RESEARCH ATOMIC ENERGY COUNCIL, …, priority 2009, dated 2016).

Tests used:
[1] = tested on: normal rat cells (Clone 9); experiment: MTT cell toxicity test, Clone 9; assay type: cell-based; conditions: Clone 9, concentration 10^3 times of 0.01 μM, 24 hr, 48 hr
Experimental: (§1) MTT, i.e. 3-(4,5-cimethyl-thiazol-2-yl)-2,5-diphenyl tetrazolium bromide, can be metabolized by succinate dehydrogenase of cell mitochondria into blue MTT formazan, and thus is widely used to detect cell viability. The experimental method includes: adding 0, 0.001 μM, 0.01 μM, 0.1 μM, 1 μM, and 10 μM hexa-lactoside into 1×10^6 normal rat cells (Clone 9) and normal mouse cells (FL83B), respectively; after culturing for 24 hr, 48 hr, adding MTT; and 4 hr later, dissolving the cells with DMSO. The blue MTT formazan is soluble in the solution. The absorption of the solution at 570 nm is detected. With the absorption at 570 nm without adding hexa-lactoside as 100% of cell viability, the experimental groups with hexa-lactoside added are compared with the normal group without adding hexa-lactoside, to get the cell viability of the experimental groups. FIG. 10 is a comparison of cell viability of hexa-lactoside in normal rat cell (Clone 9), and FIG. 11 is a comparison of cell viability of hexa-lactoside in normal mouse cell (FL83B), in which the concentration used presently is 0.01 μM.

[2] = tested on: normal mouse cells (FL83B); experiment: MTT cell toxicity test, FL83B; assay type: cell-based; conditions: concentration 10^3 times of 0.01 μM, 24 hr, 48 hr
Experimental: as §1

ASGPR = target: T1, ASGPR (Mus musculus, UniProt P24721+P34927); experiment: Competition with Eu-ASOR for binding to murine hepatocyte (time-resolved fluorescence)
T1 construct: host or cells: murine hepatocytes (purchased, plated in 24-well plates)
T1 sequence (P34927 1-284): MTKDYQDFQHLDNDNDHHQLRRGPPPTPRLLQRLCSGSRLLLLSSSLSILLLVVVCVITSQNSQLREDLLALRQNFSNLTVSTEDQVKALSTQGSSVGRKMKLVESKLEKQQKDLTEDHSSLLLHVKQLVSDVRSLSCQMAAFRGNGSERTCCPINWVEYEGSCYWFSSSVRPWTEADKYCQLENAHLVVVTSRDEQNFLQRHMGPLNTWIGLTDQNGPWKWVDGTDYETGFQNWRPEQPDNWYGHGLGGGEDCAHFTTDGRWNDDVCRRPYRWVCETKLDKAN
T1 sequence (P24721 1-301): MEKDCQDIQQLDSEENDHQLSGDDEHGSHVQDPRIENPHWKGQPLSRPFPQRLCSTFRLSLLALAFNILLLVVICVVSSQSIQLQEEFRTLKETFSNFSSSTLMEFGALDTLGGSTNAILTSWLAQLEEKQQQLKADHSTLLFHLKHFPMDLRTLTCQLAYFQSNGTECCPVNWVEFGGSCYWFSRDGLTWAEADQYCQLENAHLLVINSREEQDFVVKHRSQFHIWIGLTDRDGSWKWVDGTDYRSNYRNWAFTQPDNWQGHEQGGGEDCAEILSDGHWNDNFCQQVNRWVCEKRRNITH
Experimental: The murine hepatocyte (from Lonza Biotechnology Company, Maryland) is plated in a 24-well plate in advance, and the reaction occurs in each well, into which (i) Eu-ASOR 10 nM (ii) hepatocyte basic medium with 5 mM calcium chloride, and (iii) five different concentrations of saccharide chain peptide of 1 uM-0.8 nM are added. After culturing with shaking for 1 hr, the substance that has not been bound to hepatocyte is removed by washing with the hepatocyte basic medium containing calcium chloride.
Time-resolved fluorescence spectroscopy is preformed, that is, an enhancement solution (15 uM β-naphthoyl trifluoroacetone, 50 uM tri-n-octyl-phosphine oxide, 0.1% triton X-100 in 0.1M acetic acid, titrated with potassium hydrogen phthalate to pH 3.2) is added. The enhancement solution reacts with Eu^3+ to form a Eu chelate, which can emit a light of 615 nm when being excited at 340 nm. With the logarithm of the concentration of saccharide chain peptide as X axis, the emitted fluorescence value as Y axis, the fluorescence value without adding glycopeptide being set as 100%, the IC50 of each saccharide chain peptide can be calculated accordingly.

## NCCCCCC(=O)N[C@@H](CC(=O)NCCCC[C@@H](C(=O)NCCCCCCOC1O[C@H](CO)[C@@H](O[C@@H]2O[C@H](CO)[C@H](O)[C@H](O)[C@H]2O)[C@H](O)[C@H]1O)N(CC(=O)NCCCCCCOC1O[C@H](CO)[C@@H](O[C@@H]2O[C@H](CO)[C@H](O)[C@H](O)[C@H]2O)[C@H](O)[C@H]1O)CC(=O)NCCCCCCOC1O[C@H](CO)[C@@H](O[C@@H]2O[C@H](CO)[C@H](O)[C@H](O)[C@H]2O)[C@H](O)[C@H]1O)C(=O)NCCCC[C@@H](C(=O)NCCCCCCOC1O[C@H](CO)[C@@H](O[C@@H]2O[C@H](CO)[C@H](O)[C@H](O)[C@H]2O)[C@H](O)[C@H]1O)N(CC(=O)NCCCCCCOC1O[C@H](CO)[C@@H](O[C@@H]2O[C@H](CO)[C@H](O)[C@H](O)[C@H]2O)[C@H](O)[C@H]1O)CC(=O)NCCCCCCOC1O[C@H](CO)[C@@H](O[C@@H]2O[C@H](CO)[C@H](O)[C@H](O)[C@H]2O)[C@H](O)[C@H]1O (stereo partly shown) [AHA-Asp[DCM-Lys(ahLac)3]2, AHA-Asp[DCM-Lys(ah-Lac)3]2]
[1]
  cell viability (MTT): 100%
[2]
  cell viability (MTT): 100%

## CC(=O)N[C@H]1[C@H](OCCCCCCNC(=O)CNC(=O)CN(CC(=O)NCC(=O)NCCCCCCO[C@@H]2O[C@H](CO)[C@H](O)[C@H](O)[C@H]2NC(C)=O)[C@@H](CCCCN)C(=O)NCC(=O)NCCCCCCO[C@@H]2O[C@H](CO)[C@H](O)[C@H](O)[C@H]2NC(C)=O)O[C@H](CO)[C@H](O)[C@@H]1O [DCM-Lys(GahGalNAc)3, DCM-Lys(Gah-GalNAc)3]
ASGPR; compared with YEE or YDD
  binding to ASGPR relative to YEE or YDD: 10 times

## CC(=O)N[C@H]1[C@H](OCCCCCCNC(=O)CNC(=O)C[C@H](NC(=O)[C@H](CC(=O)NCC(=O)NCCCCCCO[C@@H]2O[C@H](CO)[C@H](O)[C@H](O)[C@H]2NC(C)=O)NC(=O)[C@@H](N)Cc2ccc(O)cc2)C(=O)NCC(=O)NCCCCCCO[C@@H]2O[C@H](CO)[C@H](O)[C@H](O)[C@H]2NC(C)=O)O[C@H](CO)[C@H](O)[C@@H]1O [YDD(GahGalNAc)3, reference compound]
ASGPR
  IC50: 10 nM
